Laboratory results published in publication PMC10917278, “Structural insights into the modulation Of SOD1 aggregation By a fungal metabolite Phialomustin-B: Therapeutic potential in ALS” (PLOS ONE, 2024).

Target: T1, SOD1^WT (Homo sapiens, UniProt P00441)
T1 construct: The full-length constructs of SOD1-wild type (aa: 1–145); His-tag (cleaved yes); made in house; host or cells: E. coli BL21 DE3
Test: Thioflavin T (ThT) fluorescence aggregation assay, SOD1^WT
Assay type: biochemical
Settings: 37 °C, reduced conditions
Method: Following the co-crystal structure elucidation of SOD1 in complex with PB, we wanted to identify the effect of PB on the aggregation of SOD1^WT and its disease mutant, SOD1^A4V. A comprehensive analysis of the anti-aggregation propensity of PB was performed using a ThT-based fluorescence assay and analytical size-exclusion based chromatography (SEC) assay. We used Thioflavin-T, a β-sheet formation reporter, to assess the aggregation of SOD1. Time lag (tlag) is a kinetic parameter used to evaluate the lag phase of fibrillation. Fibril elongation was used to evaluate the rate of β sheet formation. […] Similar effects on lag time are also observed for SOD1^A4V. […] Moreover, ThT-based aggregation assays were also performed for the PB site-specific mutants, SOD1^A123F, SOD1^K9F, SOD1^L42R, and SOD1^G10P (S4a, S4c, S4e and S4g Fig). As expected based on the abovementioned MST results, the aggregation analysis is inconclusive as these mutants, which correspond to the ligand binding residues, cause a loss of protein-ligand interactions.
Fig 6 Aggregation studies of metallated and reduced SOD1^WT and SOD1^A4V on treatment with PB. ThT fluorescence was monitored during the co-incubation of metallated SOD1^WT (50 μM) (a) or SOD1^A4V (50 μM) (b) with PB at 1:30 molar ratio at 37 °C with continuous shaking, under reduced conditions. The values were normalized to the maximal ThT intensity elicited by SOD1^WT or SOD1^A4V and fitted to a Boltzmann sigmoidal equation. The control and PB-treated species were compared to analyse the effects of PB on the aggregation of SOD1^WT and SOD1^A4V. Error bars indicate the standard deviation. Analytical SEC of metallated SOD1^WT (50 μM) (c) and SOD1^A4V (50 μM) (d) with PB were analyzed under reducing conditions before and after 24 hrs and 48 hrs incubation at 37 °C. The first peak eluting at the volume was denoted as oligomerized SOD1^WT/SOD1^A4V (L). The second, third, and fourth peaks were calculated as trimer (T), dimer (D), and monomer (M) species of SOD1^WT/SOD1^A4V running at 14.5 ml, 15.7 ml, and 16.5 ml, respectively. […] The monomer (M), dimer (D), trimer (T), and large aggregate (L) species are shown as green, purple, red, and black dotted lines, respectively. All the experiments were performed for n = 3 biological replicates.
Fig 7 Aggregation studies of de-metallated and reduced SOD1^WT and SOD1^A4V on treatment with PB. ThT fluorescence was monitored during the co-incubation of de-metallated SOD1^WT (50 μM) (a) or SOD1^A4V (50 μM) (b) with PB at 1:30 molar ratio at 37 °C with continuous shaking, under reduced conditions. The values were normalized to the maximal ThT intensity elicited by SOD1^WT or SOD1^A4V and fitted to a Boltzmann sigmoidal equation. The control and PB-treated species were compared to analyse PB’s effects on the aggregation of SOD1^WT and SOD1^A4V. Analytical SEC of de-metallated SOD1^WT (50 μM) (a) and SOD1^A4V (50 μM) (b) with PB were analysed under reducing conditions before and after 24 hrs and 48 hrs incubation at 37 °C. The first peak eluting at the volume was denoted as oligomerized SOD1^WT (L) runs at 9.2 ml. The second, third, and fourth peaks were calculated as trimer (T), dimer (D), and monomer (M) species of SOD1^WT/SOD1^A4V running at 14.5 ml, 15.7 ml, and 16.5 ml, respectively. […] In the case of SOD1^A4V, PB eliminates the formation of large aggregates compared to the control (48hrs-EC, EC represents control with EDTA). […]

[1] = De-metallated (5 mM EDTA) SOD1^WT 50 μM with PB at 1:30 molar ratio
[2] = Metallated SOD1^WT 50 μM with PB at 1:30 molar ratio

T1 sequence (P00441 whole entry): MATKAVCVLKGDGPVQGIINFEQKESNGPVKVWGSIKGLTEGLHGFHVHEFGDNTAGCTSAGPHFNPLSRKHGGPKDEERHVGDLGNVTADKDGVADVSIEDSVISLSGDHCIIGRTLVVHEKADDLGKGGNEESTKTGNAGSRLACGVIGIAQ

CCCC[C@H](C)/C=C(C)/C=C/C(=O)O [PB, (S, 2E, 4E)-4,6-dimethyldeca-2,4-dienoic acid]
kapp [1]: 0.374 h⁻¹ | t50 [1]: 1.851 h | tlag [1]: 1.84 h | kapp [2]: 0.233 h⁻¹ | t50 [2]: 2.976 h
